Experimental data reported in patent US8207209B2, “Methods of inhibiting viral infection” (priority 2007, dated 2012).
Entries after “also recorded” stand apart in the source; their conditions may differ.

Key:
[1] = system: Ebola virus; assay: microbe, parasite or virus in culture; assay type: cell-based
[2] = system: Rift Valley Fever Virus; assay type: cell-based
[3] = system: cowpox virus; set-up: species or system mice; settings: mouse, in vivo
[4] = system: PRRS virus; assay type: cell-based
[5] = Response of mice to doses of 365 (safety)
[6] = system: HIV; assay: HIV infection in MT-4 cells; assay type: cell-based; settings: modest concentrations
[7] = system: Hepatitis C Virus; assay type: cell-based
[8] = system: PBMC; assay: Cytokine levels in PBMC; settings: 5 uM dose
[9] = system: Marburg virus; assay: organism not typed; assay type: cell-based
[10] = system: Influenza; assay type: cell-based, influenza virus
[11] = system: Dengue serotypes; assay type: cell-based, Dengue virus
[12] = system: SARS; assay type: cell-based
[13] = system: Bovine Corona virus; assay type: cell-based
[14] = system: Lassa Fever Virus; assay type: cell-based
[15] = Serum levels of 365 in BALB/c mice; settings: 5 mg/kg dose
[16] = system: wide variety of cells; assay: CC50 cytotoxicity of 723 in a variety of cell types; settings: cell based assays against a wide variety of cells
[17] = in vivo; settings: mouse, ip, 10 mg/kg
[18] = system: Ebola virus; set-up: species or system mice; settings: mouse, in vivo
[19] = mouse, in vivo
[20] = system: Paramyxoviruses including Parainfluenza and Respiratory Syncitial Virus; assay type: cell-based
[21] = system: Marburg virus; set-up: species or system mice; settings: mouse, in vivo
[22] = system: Hepatitis B virus (HBV); assay: Hepatitis B virus cell based assay; settings: dose response
[23] = mouse, in vivo, ip
[24] = Serum concentration of 723 in guinea pigs; settings: guinea pig
[25] = In vivo safety/toxicity (LD50) study of 723
[26] = molecular target: Caspase 8 (Homo sapiens, UniProt Q14790); assay type: biochemical
Chain of Caspase 8 (Q14790 217-374 limits assumed, species assumed): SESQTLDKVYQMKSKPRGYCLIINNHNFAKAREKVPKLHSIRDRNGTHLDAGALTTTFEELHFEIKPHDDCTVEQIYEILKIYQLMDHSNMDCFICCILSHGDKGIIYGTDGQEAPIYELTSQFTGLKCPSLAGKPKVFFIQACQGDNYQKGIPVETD
Chain of Caspase 8 (Q14790 385-479 limits assumed, species assumed): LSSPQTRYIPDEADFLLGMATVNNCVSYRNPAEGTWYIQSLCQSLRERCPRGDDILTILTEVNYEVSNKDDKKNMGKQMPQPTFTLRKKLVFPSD

[27] = molecular target: Caspase 1 (Homo sapiens, UniProt P29466); assay type: biochemical
Chain of Caspase 1 (P29466 120-297 limits assumed, species assumed): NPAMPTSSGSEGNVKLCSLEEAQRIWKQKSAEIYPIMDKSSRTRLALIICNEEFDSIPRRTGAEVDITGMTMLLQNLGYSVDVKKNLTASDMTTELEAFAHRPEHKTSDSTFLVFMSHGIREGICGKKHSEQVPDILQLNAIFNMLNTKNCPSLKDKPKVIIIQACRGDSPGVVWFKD
Chain of Caspase 1 (P29466 317-404 limits assumed, species assumed): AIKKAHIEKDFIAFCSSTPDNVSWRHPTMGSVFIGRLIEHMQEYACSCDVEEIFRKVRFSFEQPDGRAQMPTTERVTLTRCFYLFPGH

[28] = system: cowpox virus; assay type: cell-based
[29] = molecular target: Caspase 3 (Homo sapiens, UniProt P42574); assay type: biochemical
Chain of Caspase 3 (P42574 29-175 limits assumed, species assumed): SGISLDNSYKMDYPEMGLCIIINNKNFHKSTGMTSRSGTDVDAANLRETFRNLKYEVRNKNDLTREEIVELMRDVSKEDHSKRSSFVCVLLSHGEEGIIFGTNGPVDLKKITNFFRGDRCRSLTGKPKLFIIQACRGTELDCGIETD
Chain of Caspase 3 (P42574 176-277 limits assumed, species assumed): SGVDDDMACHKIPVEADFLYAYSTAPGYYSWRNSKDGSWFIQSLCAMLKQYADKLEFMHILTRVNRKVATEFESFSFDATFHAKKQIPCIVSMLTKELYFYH

[30] = molecular target: Caspase 4 (Homo sapiens, UniProt P49662); assay: Caspase inhibition; assay type: biochemical
Chain of Caspase 4 (P49662 81-270 limits assumed, species assumed): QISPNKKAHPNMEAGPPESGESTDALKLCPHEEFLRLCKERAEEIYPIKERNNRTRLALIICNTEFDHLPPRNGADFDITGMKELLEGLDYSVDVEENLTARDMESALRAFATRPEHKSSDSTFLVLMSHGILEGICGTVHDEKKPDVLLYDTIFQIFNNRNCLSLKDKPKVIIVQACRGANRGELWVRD
Chain of Caspase 4 (P49662 290-377 limits assumed, species assumed): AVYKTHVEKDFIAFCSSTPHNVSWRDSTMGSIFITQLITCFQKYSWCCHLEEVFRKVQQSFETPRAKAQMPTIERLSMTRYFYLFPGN

[31] = molecular target: Caspase 9 (Homo sapiens, UniProt P55211); assay type: biochemical
Chain of Caspase 9 (P55211 1-315 limits assumed, species assumed): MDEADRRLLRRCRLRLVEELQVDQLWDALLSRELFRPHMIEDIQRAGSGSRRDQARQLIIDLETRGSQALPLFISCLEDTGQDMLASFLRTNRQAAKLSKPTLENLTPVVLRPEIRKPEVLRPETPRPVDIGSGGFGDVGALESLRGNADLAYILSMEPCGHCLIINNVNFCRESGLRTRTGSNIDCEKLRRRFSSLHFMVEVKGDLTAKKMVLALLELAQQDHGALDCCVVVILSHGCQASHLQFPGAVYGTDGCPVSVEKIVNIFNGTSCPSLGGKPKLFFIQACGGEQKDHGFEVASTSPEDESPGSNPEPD
Chain of Caspase 9 (P55211 331-416 limits assumed, species assumed): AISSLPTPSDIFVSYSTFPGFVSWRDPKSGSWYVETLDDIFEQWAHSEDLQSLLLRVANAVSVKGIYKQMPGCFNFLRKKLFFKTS

[32] = molecular target: Caspase 2 (Homo sapiens, UniProt P42575); assay type: biochemical
Chain of Caspase 2 (P42575 170-325 limits assumed, species assumed): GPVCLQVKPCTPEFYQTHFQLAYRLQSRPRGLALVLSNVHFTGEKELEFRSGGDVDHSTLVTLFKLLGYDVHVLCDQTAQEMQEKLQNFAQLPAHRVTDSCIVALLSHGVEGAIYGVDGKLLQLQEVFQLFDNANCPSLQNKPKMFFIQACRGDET
Chain of Caspase 2 (P42575 348-452 limits assumed, species assumed): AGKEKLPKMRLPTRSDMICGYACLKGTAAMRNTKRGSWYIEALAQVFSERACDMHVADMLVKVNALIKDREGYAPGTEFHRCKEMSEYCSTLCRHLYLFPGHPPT

[33] = system: West Nile Virus; assay type: cell-based
[34] = molecular target: Caspase 10 (Homo sapiens, UniProt Q92851); assay: Caspase inhibition; assay type: biochemical
Chain of Caspase 10 (Q92851 220-415 limits assumed): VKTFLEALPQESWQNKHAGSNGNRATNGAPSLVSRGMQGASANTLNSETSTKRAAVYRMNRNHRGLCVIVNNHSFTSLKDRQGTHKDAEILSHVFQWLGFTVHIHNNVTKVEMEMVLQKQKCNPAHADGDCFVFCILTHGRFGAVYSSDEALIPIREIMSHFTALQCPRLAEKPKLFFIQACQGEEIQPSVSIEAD
Chain of Caspase 10 (Q92851 416-521 limits assumed): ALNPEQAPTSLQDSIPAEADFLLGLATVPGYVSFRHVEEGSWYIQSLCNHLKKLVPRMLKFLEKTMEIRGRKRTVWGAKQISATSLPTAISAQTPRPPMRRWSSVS

Cc1cc(NCCCN(C)C)c2ccc3c(ccc4c(NCCCN(C)C)cc(C)nc43)c2n1.Cl.Cl.Cl.Cl [Compound 365, Quino[8,7-h]quinoline-1,7-diamine,N,N′-bis[3-(dimethylamino)propyl]-3,9-dimethyl-tetrahydrochloride]
inhibition of Ebola virus [1]: 100%
EC50 [2]: 370 nM
inhibition of Rift Valley Fever Virus (zero viral particle release) [2]: 100%
survival outcomes [3]: did not ultimately improve survival outcomes
survival times [3]: uniformly extend survival times
EC100 [4]: 3.2 µM
effectiveness in inhibiting PRRS [4]: showed effectiveness
dose at which all animals survived [5]: up to 25 mg/kg
weight after administration ([5]; up to 25 mg/kg): not significantly impacted
inhibition of HIV [6]: 100%
inhibition of HCV (luciferase signal) [7]: complete inhibition
cytokine levels relative to agent-free vehicle [8]: not substantially different
suppression of Marburg Virus [9]: suppressed
effectiveness against Influenza infection [10]: effective
effectiveness against Dengue serotypes [11]: effective
inhibition of SARS [12]: inhibited
effectiveness against Bovine Corona virus [13]: effective; also recorded: inhibited
inhibition of Lassa Fever Virus [14]: suppressed
time course of serum concentration [15]: leaves the serum relatively rapidly

N=C(N)c1ccc2oc(C=Cc3nc4ccc(C(=N)N)cc4[nH]3)cc2c1 [Compound 723, 2-[2-(5-carbamimidoyl-benzofuran-2-yl)-vinyl]-3H-benzoimidazole-5-carboxamidine]
CC50 [16]: well above safety thresholds
infection inhibition [1]: 100%
EC50 ([1]; Zaire ebolavirus): ≤ 50 nM
half-life [17]: 120 min
protection on challenged mice [18]: 90%
survival [18]: 25%
treated animals survived [18]: 100%
effectiveness in inhibiting PRRS [4]: showed effectiveness
t1/2 in mammalian models [19]: two-four
protection against Paramyxovirus challenge [20]: effective in conferring a great degree of protection
protection, measured in terms of survival [21]: 100%
effectiveness in treating HBV (reduction in viral copies) [22]: effectiveness, at nanomolar levels
EC50 [9]: ≤ 50 nM
infection inhibition [9]: 100%
concentrations in the liver and kidney [23]: high
concentrations in the spleen and the heart [23]: relatively low
effectiveness against Influenza infection [10]: comparatively poorly
effectiveness against Dengue serotypes [11]: effective
effectiveness against Bovine Corona virus [13]: effective
half-life [24]: 240 min
lethal dose ([25]; administered on day zero): 200 mg/kg
impact of dosing on weight over time ([25]; below 200 mg/kg): little or no impact
dose at which compound is well tolerated ([25]; in vivo): up to 100 mg/kg

N=C(N)c1ccc(-c2ccc(-c3ccc(C(=N)N)cc3)s2)cc1 [Compound 510, benzenecarboxylmidamide,4,4′-(2,5-thiphenediyl)bis]
inhibition of Caspase 8 [26]: elevated inhibition; also recorded: selective inhibition
inhibition of Caspase 1 [27]: elevated inhibition; also recorded: to some degree
EC50 [28]: ~250 nM
inhibition measured in terms of cell survival [1]: 100%
inhibition of Caspase 3 [29]: selective inhibition
protection against Ebola virus, therapeutic [18]: provided protection
protection against lethal challenge [18]: 100%
inhibition of Caspase 4 [30]: not
protection against Paramyxovirus challenge [20]: effective
inhibition of Caspase 9 [31]: not
protection, measured in terms of survival [21]: 100%
HCV viral titers [7]: zero
inhibition of Caspase 2 [32]: elevated inhibition; also recorded: selective inhibition
inhibition measured in terms of cell survival [9]: 100%
inhibition of West Nile Virus [33]: 100%
inhibition of Caspase 10 [34]: not
inhibition of Lassa Fever Virus [14]: effective
